Laboratory results from patent publication US20250352539A1, “COMBINATION THERAPY FOR TREATING CANCER” (AstraZeneca AB, priority 2022, published 2025).
Where two headings read alike, the source gives them in different places.

Assays:
Experiment in all cases: 10-day Cell Titre Glo combination screen
Assay type in all cases: cell-based
CAL-51 = settings: Homo sapiens; CAL-51 breast; monotherapy; read-out: mono AC50
Text: (§1) The Highest Single Agent (HSA) model is used to determine a combination's synergy score (and is based simply on the intuition that if a combination's effect exceeds the effect level of each of its constituents, there must be some combination interaction). Mathematically, the HSA model describes simple superposition of the single agent curves:
(§2) where CX,Y are the concentrations of the X and Y compound, and IX and IY are inhibitions of the single agents at CX,Y. It is also useful to calculate a volume score (HSA Volume) between the data and the HSA surface to characterise the overall strength of combination effects. Empirically derived combination matrices are compared to their respective HSA additivity models constructed from experimentally collected single agent dose response curves. Summation of this excess additivity across the dose response matrix is referred to HSA Volume.
(§3) Potency shifting can also be scored using combination index (CI). For a chosen iso-effect level (ICut), CI is calculated as: […]
(§4) where (CX/ECX) for a particular data point is the ratio of the X compound's measured concentration to its effective concentration at the chosen effect level. The CI is a rough estimate of how much drug was needed in combination relative to the single agent doses required to achieve the chosen effect level. CI values in the range of 0.5-0.7 are typical for in vitro measurements of current clinical combinations. The CI error (σCI) is calculated using standard error propagation through the CI calculation based on the isobologram errors.
(§5) This combination screen was a 10-day assay using Cell Titre Glo as the readout for viability.
(§6) The assay was performed in 384 well plates, with 1 cell line and 4 drug-drug combinations per plate dosed in a 6×6 matrix. A day zero reading was measured to determine growth inhibition. GenedataScreener was used to input the raw values for every well, and the software was programmed to normalise the values to the day zero and DMSO control values.
(§7) The CellTiter-Glo® Luminescent Cell Viability Assay is a homogeneous method to determine the number of viable cells in culture based on quantitation of the ATP present, which signals the presence of metabolically active cells. It relies on the properties of a proprietary thermostable luciferase (Ultra-Glo™ Recombinant Luciferase), which generates a stable “glow-type” luminescent signal and improves performance across a wide range of assay conditions.
(§8) The following information was reported: Synergy scores (HSA); combination index values; AC50 (half-maximal activity concentration) monotherapy values.

DU4475 = settings: Homo sapiens, DU-4475; DU4475 breast; monotherapy; read-out: mono AC50
Text: as §1, §2, §3, §4, §5, §6, §7, §8

EFM-19 = settings: Homo sapiens; EFM-19 breast; monotherapy; read-out: mono AC50
Text: as §1, §2, §3, §4, §5, §6, §7, §8

HCC1395 = settings: Homo sapiens; HCC1395 breast; monotherapy; read-out: mono AC50
Text: as §1, §2, §3, §4, §5, §6, §7, §8

HCC15 = HCC15 lung; monotherapy; read-out: mono AC50
Text: as §1, §2, §3, §4, §5, §6, §7, §8

HCC1806 = settings: Homo sapiens; HCC1806 breast; monotherapy; read-out: mono AC50
Text: as §1, §2, §3, §4, §5, §6, §7, §8

HCC1954 = settings: Homo sapiens; HCC1954 breast; monotherapy; read-out: mono AC50
Text: as §1, §2, §3, §4, §5, §6, §7, §8

HOP62 = settings: Homo sapiens, HOP-62; HOP62 lung; monotherapy; read-out: mono AC50
Text: as §1, §2, §3, §4, §5, §6, §7, §8

JIMT-1 = settings: Homo sapiens; JIMT-1 breast; monotherapy; read-out: mono AC50
Text: as §1, §2, §3, §4, §5, §6, §7, §8

LU99 = settings: Homo sapiens, Lu-99; LU99 lung; monotherapy; read-out: mono AC50
Text: as §1, §2, §3, §4, §5, §6, §7, §8

MCF7 F100-16 = settings: Homo sapiens; MCF7 F100-16 breast; monotherapy; read-out: mono AC50
Text: as §1, §2, §3, §4, §5, §6, §7, §8

MCF7 T52 = settings: Homo sapiens; MCF7 T52 breast; monotherapy; read-out: mono AC50
Text: as §1, §2, §3, §4, §5, §6, §7, §8

NCI-H1373 = settings: Homo sapiens; NCI-H1373 lung; monotherapy; read-out: mono AC50
Text: as §1, §2, §3, §4, §5, §6, §7, §8

NCI-H1395 = settings: monotherapy, read-out: mono AC50
Text: as §1, §2, §3, §4, §5, §6, §7, §8

NCI-H1573 = settings: Homo sapiens, NCI-H1573, 240 h, NCI-H1573 lung; monotherapy; read-out: mono AC50
Text: as §1, §2, §3, §4, §5, §6, §7, §8

NCI-H1792 = settings: Homo sapiens; NCI-H1792 lung; monotherapy; read-out: mono AC50
Text: as §1, §2, §3, §4, §5, §6, §7, §8

NCI-H2009 = settings: Homo sapiens; NCI-H2009 lung; monotherapy; read-out: mono AC50
Text: as §1, §2, §3, §4, §5, §6, §7, §8

NCI-H23 = settings: Homo sapiens; NCI-H23 lung; monotherapy; read-out: mono AC50
Text: as §1, §2, §3, §4, §5, §6, §7, §8

NCI-H3122 = settings: monotherapy, read-out: mono AC50
Text: as §1, §2, §3, §4, §5, §6, §7, §8

NCI-H358 = settings: Homo sapiens; NCI-H358 lung; monotherapy; read-out: mono AC50
Text: as §1, §2, §3, §4, §5, §6, §7, §8

NCI-H522 = settings: Homo sapiens; NCI-H522 lung; monotherapy; read-out: mono AC50
Text: as §1, §2, §3, §4, §5, §6, §7, §8

NCI-H810 = settings: Homo sapiens; NCI-H810 lung; monotherapy; read-out: mono AC50
Text: as §1, §2, §3, §4, §5, §6, §7, §8

SK-BR-3 = settings: Homo sapiens; SK-BR-3 breast; monotherapy; read-out: mono AC50
Text: as §1, §2, §3, §4, §5, §6, §7, §8

ZR-75-1 = settings: Homo sapiens; ZR-75-1 breast; monotherapy; read-out: mono AC50
Text: as §1, §2, §3, §4, §5, §6, §7, §8

**Q.** For `C[C@@H]1COCCN1c1cc(C2([S@](C)(=N)=O)CC2)nc(-c2ccnc3[nH]ccc23)n1` [AZD6738, 4-{4-[(3R)-3-Methylmorpholin-4-yl]-6-[1-((R)—S-methylsulfonimidoyl)cyclopropyl]pyrimidin-2-yl}-1H-pyrrolo[2,3-b]-pyridine], which AC50 (CAL-51) is on record?
**A.** Its AC50 is 1360 nM.

**Q.** And the AC50 (DU4475)?
**A.** Its AC50 is 3.25 µM.

**Q.** And the AC50 (EFM-19)?
**A.** Its AC50 is 14.3 µM.

**Q.** What about the AC50 (HCC1395) of the same compound?
**A.** Its AC50 is 814 nM.

**Q.** And the AC50 (HCC15)?
**A.** Its AC50 is 7.02 µM.

**Q.** What about the AC50 (HCC1806) of the same compound?
**A.** Its AC50 is 412 nM.

**Q.** What about the AC50 (HCC1954) of the same compound?
**A.** The AC50 was 2560 nM.

**Q.** And the AC50 (HOP62)?
**A.** Its AC50 is 590 nM.

**Q.** And the AC50 (JIMT-1)?
**A.** The AC50 was 869 nM.

**Q.** What about the AC50 (LU99) of the same compound?
**A.** The AC50 was 581 nM.

**Q.** What about the AC50 (MCF7 F100-16) of the same compound?
**A.** Its AC50 is 1730 nM.

**Q.** What about the AC50 (MCF7 T52) of the same compound?
**A.** Its AC50 is 1390 nM.

**Q.** What about the AC50 (NCI-H1373) of the same compound?
**A.** Its AC50 is 1240 nM.

**Q.** And the AC50 (NCI-H1395; Homo sapiens, NCI-H1395, NCI-H1395 lung)?
**A.** The AC50 was 3.31 µM.

**Q.** And the AC50 (NCI-H1395; NCI-H1395 lung)?
**A.** The AC50 was 2.9 µM.

**Q.** What about the AC50 (NCI-H1573) of the same compound?
**A.** The AC50 was 1390 nM.

**Q.** What about the AC50 (NCI-H1792) of the same compound?
**A.** Its AC50 is 677 nM.

**Q.** What about the AC50 (NCI-H2009) of the same compound?
**A.** Its AC50 is 1020 nM.

**Q.** What about the AC50 (NCI-H23) of the same compound?
**A.** Its AC50 is 221 nM.

**Q.** And the AC50 (NCI-H3122; Homo sapiens, NCI-H3122, NCI-H3122 lung)?
**A.** Its AC50 is 3.12 µM.

**Q.** And the AC50 (NCI-H3122; NCI-H3122 lung)?
**A.** The AC50 was 3.21 µM.

**Q.** What about the AC50 (NCI-H358) of the same compound?
**A.** Its AC50 is 2670 nM.

**Q.** And the AC50 (NCI-H522)?
**A.** Its AC50 is 5.65 µM.

**Q.** What about the AC50 (NCI-H810) of the same compound?
**A.** The AC50 was 3.35 µM.

**Q.** And the AC50 (SK-BR-3)?
**A.** Its AC50 is 542 nM.

**Q.** And the AC50 (ZR-75-1)?
**A.** The AC50 was 6.03 µM.
